Here are results for 19 compounds from patent US12496348B2, “Small molecule target bromo/acetyl proteins and uses thereof” (DANA-FARBER CANCER INSTITUTE, INC., priority 2019, dated 2025).

SMILES strings stand for the structures.

For one test, the system named is Kelly Neuroblastoma cells. Kind of test: ATPlite Luminescence viability assay, Kelly neuroblastoma cells, 72 h. The format is cell-based. The conditions noted are these: Kelly Neuroblastoma cells, ATPlite, class symbols, read-out: IC50 of inventive bispecific compounds. As for the experimental part:
Kelly Neuroblastoma cells were seeded at 1,000 cells per well in 384 well, white plates and were treated in a dose-dependent manner for 72 h.
As for `Cc1noc(C)c1-c1ccc2nc(-c3ccc(N4CCN(C(=O)CCOCCOCCOCCNC(=O)COc5cccc6c5C(=O)N(C5CCC(=O)NC5=O)C6=O)CC4)cc3)c(NC3CCCCC3)n2c1` (centres unmarked) [Compound 4, N-(2-(2-(2-(3-(4-(4-(3-(cyclohexylamino)-6-(3,5-dimethylisoxazol-4-yl)imidazo[1,2-a]pyridin-2-yl)phenyl)piperazin-1-yl)-3-oxopropoxy)ethoxy)ethoxy)ethyl)-2-((2-(2,6-dioxopiperidin-3-yl)-1,3-dioxoisoindolin-4-yl)oxy)acetamide], the IC50 is more than 10 µM.
Still for that read-out and setting: the result for `Cc1noc(C)c1-c1ccn2c(NCc3ccccc3)c(-c3ccc(N4CCN(C(=O)CCOCCOCCOCCOCCOCCOCCNc5cccc6c5C(=O)N(C5CCC(=O)NC5=O)C6=O)CC4)cc3)nc2c1` (centres unmarked) [Compound 5, 4-((21-(4-(4-(3-(benzylamino)-7-(3,5-dimethylisoxazol-4-yl)imidazo[1,2-a]pyridin-2-yl)phenyl)piperazin-1-yl)-21-oxo-3,6,9,12,15,18-hexaoxahenicosyl)amino)-2-(2,6-dioxopiperidin-3-yl)isoindoline-1,3-dione] reads more than 10 µM; that for `Cc1noc(C)c1-c1ccn2c(NCc3ccccc3)c(-c3ccc(N4CCN(C(=O)CCOCCOCCOCCNc5cccc6c5C(=O)N(C5CCC(=O)NC5=O)C6=O)CC4)cc3)nc2c1` (centres unmarked) [Compound 6, 4-((2-(2-(2-(3-(4-(4-(3-(benzylamino)-7-(3,5-dimethylisoxazol-4-yl)imidazopyridin-2-yl)phenyl)piperazin-1-yl)-3-oxopropoxy)ethoxy)ethoxy)ethyl)amino)-2-(2,6-dioxopiperidin-3-yl)isoindoline-1,3-dione], 1 to 10 µM.
Still for that read-out and setting: the same measure for `Cc1noc(C)c1-c1ccn2c(NC3CCCCC3)c(CCc3ccc(NC(=O)CCCCCCCCCCCNc4cccc5c4C(=O)N(C4CCC(=O)NC4=O)C5=O)cc3)nc2c1` (centres unmarked) [Compound 9, N-(4-(2-(3-(cyclohexylamino)-7-(3,5-dimethylisoxazol-4-yl)imidazo[1,2-a]pyridin-2-yl)ethyl)phenyl)-12-((2-(2,6-dioxopiperidin-3-yl)-1,3-dioxoisoindolin-4-yl)amino)dodecanamide]: more than 10 µM.
The same measure, in the same setting: the result for `Cc1noc(C)c1-c1ccn2c(NC3CCCCC3)c(CCc3ccc(NC(=O)CCCCCCCCCCCNC(=O)COc4cccc5c4C(=O)N(C4CCC(=O)NC4=O)C5=O)cc3)nc2c1` (centres unmarked) [Compound 10, N-(4-(2-(3-(cyclohexylamino)-7-(3,5-dimethylisoxazol-4-yl)imidazo[1,2-a]pyridin-2-yl)ethyl)phenyl)-12-(2-((2-(2,6-dioxopiperidin-3-yl)-1,3-dioxoisoindolin-4-yl)oxy)acetamido)dodecanamide] reads more than 10 µM; that for `Cc1noc(C)c1-c1ccn2c(NC3CCCCC3)c(CCc3ccc(NC(=O)CCCCCCCNc4cccc5c4C(=O)N(C4CCC(=O)NC4=O)C5=O)cc3)nc2c1` (centres unmarked) [Compound 13, N-(4-(2-(3-(cyclohexylamino)-7-(3,5-dimethylisoxazol-4-yl)imidazo[1,2-a]pyridin-2-yl)ethyl)phenyl)-8-((2-(2,6-dioxopiperidin-3-yl)-1,3-dioxoisoindolin-4-yl)amino)octanamide], more than 10 µM.
`Cc1noc(C)c1-c1ccn2c(NC3CCCCC3)c(CCc3ccc(NC(=O)CCCCCNc4ccc5c(c4)C(=O)N(C4CCC(=O)NC4=O)C5=O)cc3)nc2c1` (centres unmarked) [Compound 14, N-(4-(2-(3-(cyclohexylamino)-7-(3,5-dimethylisoxazol-4-yl)imidazo[1,2-a]pyridin-2-yl)ethyl)phenyl)-6-((2-(2,6-dioxopiperidin-3-yl)-1,3-dioxoisoindolin-5-yl)amino)hexanamide]: the IC50 lay within 1 to 10 µM.
As to `Cc1ncsc1-c1ccc(CNC(=O)[C@H]2C[C@H](O)CN2C(=O)[C@H](NC(=O)COCCOCCOCCNC(=O)CCC(=O)Nc2ccc(CCc3nc4cc(-c5c(C)noc5C)ccn4c3NC3CCCCC3)cc2)C(C)(C)C)cc1` [Compound 15, N1-(4-(2-(3-(cyclohexylamino)-7-(3,5-dimethylisoxazol-4-yl)imidazo[1,2-a]pyridin-2-yl)ethyl)phenyl)-N4-((R)-13-((2R,4S)-4-hydroxy-2-((4-(4-methylthiazol-5-yl)benzyl)carbamoyl)pyrrolidine-1-carbonyl)-14,14-dimethyl-11-oxo-3,6,9-trioxa-12-azapentadecyl)succinamide], the IC50 was more than 10 µM.
On the same count and under the same terms, the same measure for `Cc1noc(C)c1-c1ccn2c(NC3CCCCC3)c(CCc3ccc(NC(=O)CCOCCOCCOCCOCCOCCOCCNc4cccc5c4C(=O)N(C4CCC(=O)NC4=O)C5=O)cc3)nc2c1` (centres unmarked) [Compound 16, N-(4-(2-(3-(cyclohexylamino)-7-(3,5-dimethylisoxazol-4-yl)imidazo[1,2-a]pyridin-2-yl)ethyl)phenyl)-1-((2-(2,6-dioxopiperidin-3-yl)-1,3-dioxoisoindolin-4-yl)amino)-3,6,9,12,15,18-hexaoxahenicosan-21-amide]: 1 to 10 µM; for `Cc1noc(C)c1-c1ccn2c(NC3CCCCC3)c(CCc3ccc(NC(=O)C4CCC(Nc5cccc6c5C(=O)N(C5CCC(=O)NC5=O)C6=O)CC4)cc3)nc2c1` (centres unmarked) [Compound 17, N-(4-(2-(3-(cyclohexylamino)-7-(3,5-dimethylisoxazol-4-yl)imidazo[1,2-a]pyridin-2-yl)ethyl)phenyl)-4-((2-(2,6-dioxopiperidin-3-yl)-1,3-dioxoisoindolin-4-yl)amino)cyclohexane-1-carboxamide]: 1 to 10 µM; for `Cc1noc(C)c1-c1ccn2c(NC3CCCCC3)c(CCc3ccc(NC(=O)c4ccc(CNc5cccc6c5C(=O)N(C5CCC(=O)NC5=O)C6=O)cc4)cc3)nc2c1` (centres unmarked) [Compound 18, N-(4-(2-(3-(cyclohexylamino)-7-(3,5-dimethylisoxazol-4-yl)imidazo[1,2-a]pyridin-2-yl)ethyl)phenyl)-4-(((2-(2,6-dioxopiperidin-3-yl)-1,3-dioxoisoindolin-4-yl)amino)methyl)benzamide]: more than 10 µM.
For the compound `COc1ccc(CCc2nc3cc(-c4c(C)noc4C)ccc3n2C[C@H](C)N2CCN(C(=O)CCOCCOCCOCCNc3ccc4c(c3)C(=O)N(C3CCC(=O)NC3=O)C4=O)CC2)cc1Cl` (stereo partly drawn) [Compound 19, 5-((2-(2-(2-(3-(4-((S)-1-(2-(3-chloro-4-methoxyphenethyl)-5-(3,5-dimethylisoxazol-4-yl)-1H-benzo[d]imidazol-1-yl)propan-2-yl)piperazin-1-yl)-3-oxopropoxy)ethoxy)ethoxy)ethyl)amino)-2-(2,6-dioxopiperidin-3-yl)isoindoline-1,3-dione], the concentration for half-maximal inhibition (IC50) is more than 10 µM.
Same read-out and setting: the same measure for `COc1ccc(CCc2nc3cc(-c4c(C)noc4C)ccc3n2C[C@H](C)N2CCN(C(=O)CCCCCCCCCNc3ccc4c(c3)C(=O)N(C3CCC(=O)NC3=O)C4=O)CC2)cc1Cl` (stereo partly drawn) [Compound 20, 5-((10-(4-((S)-1-(2-(3-chloro-4-methoxyphenethyl)-5-(3,5-dimethylisoxazol-4-yl)-1H-benzo[d]imidazol-1-yl)propan-2-yl)piperazin-1-yl)-10-oxodecyl)amino)-2-(2,6-dioxopiperidin-3-yl)isoindoline-1,3-dione]: more than 10 µM; for `COc1ccc(CCc2nc3cc(-c4c(C)noc4C)ccc3n2C[C@H](C)N2CCN(C(=O)CCCCCNc3ccc4c(c3)C(=O)N(C3CCC(=O)NC3=O)C4=O)CC2)cc1Cl` (stereo partly drawn) [Compound 21, 5-((6-(4-((S)-1-(2-(3-chloro-4-methoxyphenethyl)-5-(3,5-dimethylisoxazol-4-yl)-1H-benzo[d]imidazol-1-yl)propan-2-yl)piperazin-1-yl)-6-oxohexyl)amino)-2-(2,6-dioxopiperidin-3-yl)isoindoline-1,3-dione]: more than 10 µM; for `Cc1noc(C)c1-c1ccc2c(c1)nc(CCc1ccc(NC(=O)CCOCCOCCOCCNc3cccc4c3C(=O)N(C3CCC(=O)NC3=O)C4=O)cc1)n2CCN1CCOCC1` (centres unmarked) [Compound 22, N-(4-(2-(5-(3,5-dimethylisoxazol-4-yl)-1-(2-morpholinoethyl)-1H-benzo[d]imidazol-2-yl)ethyl)phenyl)-3-(2-(2-(2-((2-(2,6-dioxopiperidin-3-yl)-1,3-dioxoisoindolin-4-yl)amino)ethoxy)ethoxy)ethoxy)propanamide]: more than 10 µM.
On to `Cc1noc(C)c1-c1ccc2c(c1)nc(CCc1ccc(NC(=O)CCCCCCCCCCCNc3cccc4c3C(=O)N(C3CCC(=O)NC3=O)C4=O)cc1)n2CCN1CCOCC1` (centres unmarked) [Compound 23, N-(4-(2-(5-(3,5-dimethylisoxazol-4-yl)-1-(2-morpholinoethyl)-1H-benzo[d]imidazol-2-yl)ethyl)phenyl)-12-((2-(2,6-dioxopiperidin-3-yl)-1,3-dioxoisoindolin-4-yl)amino)dodecanamide], for which the IC50 is more than 10 µM.
In the case of `Cc1noc(C)c1-c1ccc2c(c1)nc(CCc1ccc(NC(=O)CCCCCCCCCCCNC(=O)COc3cccc4c3C(=O)N(C3CCC(=O)NC3=O)C4=O)cc1)n2CCN1CCOCC1` (centres unmarked) [Compound 24, N-(4-(2-(5-(3,5-dimethylisoxazol-4-yl)-1-(2-morpholinoethyl)-1H-benzo[d]imidazol-2-yl)ethyl)phenyl)-12-(2-((2-(2,6-dioxopiperidin-3-yl)-1,3-dioxoisoindolin-4-yl)oxy)acetamido)dodecanamide], the IC50 is more than 10 µM.
`Cc1noc(C)c1-c1ccc2c(c1)nc(CCc1ccc(NC(=O)CCCCCNc3cccc4c3C(=O)N(C3CCC(=O)NC3=O)C4=O)cc1)n2CC(C)N1CCOCC1` (centres unmarked) [Compound 25, N-(4-(2-(5-(3,5-dimethylisoxazol-4-yl)-1-(2-morpholinopropyl)-1H-benzo[d]imidazol-2-yl)ethyl)phenyl)-6-((2-(2,6-dioxopiperidin-3-yl)-1,3-dioxoisoindolin-4-yl)amino)hexanamide]: the IC50 was more than 10 µM.
As to `Cc1noc(C)c1-c1ccc2c(c1)nc(CCc1ccc(NC(=O)CCCCCCCNc3cccc4c3C(=O)N(C3CCC(=O)NC3=O)C4=O)cc1)n2CC(C)N1CCOCC1` (centres unmarked) [Compound 26, N-(4-(2-(5-(3,5-dimethylisoxazol-4-yl)-1-(2-morpholinopropyl)-1H-benzo[d]imidazol-2-yl)ethyl)phenyl)-8-((2-(2,6-dioxopiperidin-3-yl)-1,3-dioxoisoindolin-4-yl)amino)octanamide], the IC50 is more than 10 µM.

The test is the same for the next values; noted with them: Kelly Neuroblastoma cells, ATPlite, read-out: IC50.
`Cc1noc(C)c1-c1ccn2c(NCc3ccccc3)c(-c3ccc(N4CCN(C(=O)CCOCCOCCOCCNc5cccc6c5C(=O)N(C5CCC(=O)NC5=O)C6=O)CC4)cc3)nc2c1` (centres unmarked) [Compound 6, 4-((2-(2-(2-(3-(4-(4-(3-(benzylamino)-7-(3,5-dimethylisoxazol-4-yl)imidazopyridin-2-yl)phenyl)piperazin-1-yl)-3-oxopropoxy)ethoxy)ethoxy)ethyl)amino)-2-(2,6-dioxopiperidin-3-yl)isoindoline-1,3-dione]: the IC50 stood at 1.27 µM.
